ChEMBL document CHEMBL1135923, “Conceptually new low-calcemic oxime analogues of the hormone 1 alpha,25-dihydroxyvitamin D(3): synthesis and biological testing” (J Med Chem, 2002)

What was measured:
[1] = target: T1, Vitamin D3 receptor (Rattus norvegicus) (UniProt P13053); assay: Percent relative binding affinity for vitamin D receptor VDR; type: functional
T1 sequence (whole entry): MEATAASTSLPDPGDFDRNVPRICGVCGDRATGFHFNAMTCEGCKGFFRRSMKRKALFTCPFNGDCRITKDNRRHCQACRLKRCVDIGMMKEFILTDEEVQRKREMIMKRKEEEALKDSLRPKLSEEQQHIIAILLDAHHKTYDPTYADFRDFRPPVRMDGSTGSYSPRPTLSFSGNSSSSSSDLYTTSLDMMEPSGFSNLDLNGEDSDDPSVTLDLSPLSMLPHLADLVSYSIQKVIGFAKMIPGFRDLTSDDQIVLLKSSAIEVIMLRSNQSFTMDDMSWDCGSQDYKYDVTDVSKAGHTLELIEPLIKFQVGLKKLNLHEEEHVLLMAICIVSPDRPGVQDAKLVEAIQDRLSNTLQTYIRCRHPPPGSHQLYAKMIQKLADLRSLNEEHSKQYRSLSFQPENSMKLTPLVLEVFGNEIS

[2] = target: T1, Vitamin D3 receptor (Rattus norvegicus); assay: In vitro vitamin D receptor-mediated transcriptional activity in rat osteosarcoma ROS 17/2.8 cells

Work on C=C1/C(=C\C=C2/CCC[C@]3(C)C([C@H](C)CCCC(=O)C(C)(C)C)=CC[C@@H]23)C[C@H](O)C[C@H]1O yielded an RBA [1] of 35% and an ED50 [2] of 0.1 nM.
Compound C=C1/C(=C\C=C2/CCC[C@]3(C)C([C@H](C)CCC/C(=N\OC)C(C)(C)C)=CC[C@@H]23)C[C@H](O)C[C@H]1O has an RBA [1] of under 3% and an ED50 [2] of 2 nM.
Work on C=C1/C(=C\C=C2/CCC[C@]3(C)[C@@H]([C@H](C)CCCC(C)(C)O)CC[C@@H]23)C[C@@H](O)C[C@@H]1O yielded an ED50 [2] of 0.4 nM.
In the case of C=C1/C(=C\C=C2/CCC[C@]3(C)C([C@H](C)CCC/C(=N\O)C(C)(C)C)=CC[C@@H]23)C[C@H](O)C[C@H]1O, the RBA [1] was 3% and the ED50 [2] was 10 nM.
